Patent publication US4906662A, “Phenol derivatives, their preparation and the use thereof” (Otsuka Pharmaceutical Factory, Inc., priority 1986, dated 1990)
Counter-ions that a name gives are not always drawn.

Target: T1, 5-lipoxygenase (Cavia porcellus, UniProt A0A286X958)
T1 construct: endogenous in cells; host or cells: guinea pig peritoneal exudate cells (casein-elicited), intact cell suspension
T1 sequence (A0A286X958 1-674): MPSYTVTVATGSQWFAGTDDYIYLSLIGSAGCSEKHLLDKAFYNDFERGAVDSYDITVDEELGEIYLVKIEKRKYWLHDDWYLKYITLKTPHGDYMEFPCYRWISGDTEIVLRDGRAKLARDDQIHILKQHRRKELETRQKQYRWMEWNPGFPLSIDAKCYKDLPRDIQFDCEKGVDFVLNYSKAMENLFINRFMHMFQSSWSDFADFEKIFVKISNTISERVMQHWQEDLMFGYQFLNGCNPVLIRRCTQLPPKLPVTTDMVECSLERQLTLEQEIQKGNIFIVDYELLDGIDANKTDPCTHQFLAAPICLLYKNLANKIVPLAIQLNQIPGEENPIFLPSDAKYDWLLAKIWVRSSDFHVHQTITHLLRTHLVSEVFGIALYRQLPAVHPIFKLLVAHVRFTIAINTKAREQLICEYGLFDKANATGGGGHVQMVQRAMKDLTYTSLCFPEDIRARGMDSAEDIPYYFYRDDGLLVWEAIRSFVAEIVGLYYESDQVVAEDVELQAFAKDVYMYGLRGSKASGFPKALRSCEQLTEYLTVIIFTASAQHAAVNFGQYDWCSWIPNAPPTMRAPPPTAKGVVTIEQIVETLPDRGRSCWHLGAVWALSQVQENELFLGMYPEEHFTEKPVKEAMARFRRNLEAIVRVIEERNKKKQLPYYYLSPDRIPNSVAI
Assay: 5-Lipoxygenase inhibitory activity (5-HETE formation in guinea pig peritoneal exudate cells)
Type: cell-based
Details: read-out: Percent inhibition of 5-lipoxygenase
Protocol: (J. Biol. Chem., 256, 4156 (1981)) and to the method of Ochi et al. (J. Biol. Chem., 258, 5754 (1983). More specifically, 2% casein was intraperitoneally given to a guinea pig, which was bleeded to death 14 to 16 hours thereafter. The peritoneal cavity was washed to collect exudate cells, which were suspended in a phosphate buffer containing 1 mM CaCl2 and 5.5 mM glucose to a concentration of 2.5×10^7 cells/ml. The cell suspension was incubated at 30° C. for 2 minutes. The test compound was then added to the cell suspension, followed by incubation for 2 minutes. With addition of 10 μM of A23187 first and then 10 μM of ^14 C-arachidonic acid to the resulting suspension. Then, the suspension was incubated for 3 minutes. […] The arachidonic acid, 5(S)-hydroxy-6,8,11,14-eicosatetraenoic acid (5-HETE) and other portions were thereafter scraped off, and ^14 C was counted by a scintillator.

| SMILES | inhibition at 1 µM [%] | inhibition at 10 µM [%] |
| --- | --- | --- |
| Cc1ccc(Nc2cc(C(C)(C)C)c(O)c(C(C)(C)C)c2)cc1 [Compound 20] | 16 | 51 |
| CC(Cc1ccc(O)c(O)c1)C(C)Cc1ccc(O)c(O)c1 (stereo not drawn) [NDGA, nordihydroguaiaretic acid, reference compound] | 45 | – |
| CC(=O)c1ccc(Nc2cc(C(C)(C)C)c(O)c(C(C)(C)C)c2)cc1 [Compound 9] | 27 | 67 |
| CC(C)(C)c1cc(Nc2cc(Cl)ccc2O)cc(C(C)(C)C)c1O [Compound 19] | 37 | 58 |
| Cc1cc(Nc2cccc(CC(=O)O)c2)c(C)c(C)c1O [Compound 103] | 41 | 91 |
| Cc1ccc(Nc2cc(C(C)(C)C)c(O)c(C(C)(C)C)c2)c(C(=O)O)c1 [Compound 29] | 19 | 71 |
| CC(C)(C)c1cc(Nc2ccc(C(=O)O)cc2)cc(C(C)(C)C)c1O [Compound 26] | 33 | 71 |
| CC(C)(C)c1cc(Nc2ccccc2C(=O)O)cc(C(C)(C)C)c1O [Compound 25, 2,6-di-tert-butyl-4-(2-carboxyphenylamino)phenol] | – | 66 |
| CC(C)(C)c1cc(Nc2ccc(CCCC(=O)O)cc2)cc(C(C)(C)C)c1O [Compound 22] | 28 | 67 |
| CC(C)(C)c1cc(Nc2ccc(CC(=O)O)cc2)cc(C(C)(C)C)c1O [Compound 5] | 21 | 46 |
| CN(C)c1ccc(Nc2cc(C(C)(C)C)c(O)c(C(C)(C)C)c2)cc1 [Compound 42, 4-(4-dimethylaminophenylamino)-2,6-di-tert-butylphenol dihydrochloride] | 19 | 50 |
| CCOC(=O)/C=C/c1cccc(Nc2cc(C)c(O)c(C)c2C)c1 [Compound 52, ethyl 3-(4-hydroxy-2,3,5-trimethylphenylamino)cinnamate hydrochloride] | 75 | 95 |
| CC(C)(C)c1cc(Nc2ccc(CCO)cc2)cc(C(C)(C)C)c1O [Compound 33] | 52 | 86 |
| CC(C)(C)c1cc(Nc2cccc(C(=O)O)c2)cc(C(C)(C)C)c1O [Compound 24, 2,6-di-tert-butyl-4-(3-carboxyphenylamino)phenol] | 26 | 51 |

Now from value to compound:

| inhibition at 1 µM [%] | inhibition at 10 µM [%] | SMILES |
| --- | --- | --- |
| 90 | 96 | Cc1cc(Nc2ccc(Cl)cc2)c(C)c(C)c1O [Compound 94, 2,3,6-trimethyl-4-(4-chlorophenylamino)phenol] |
| 89 | 95 | COC(=O)Cc1ccc(Nc2cc(C)c(O)c3c2CCCC3)cc1 [Compound 87, 2-methyl-4-(4-methoxycarbonylmethylphenylamino)-5,6,7,8-tetrahydronaphthol] |
| 93 | 92 | COC(=O)Cc1ccc(Nc2cc(C)c(O)c(C)c2C)cc1 [Compound 86, 4-(4-methoxycarbonylmethylphenylamino)-2,3,6-trimethylphenol] |
| 95 | 95 | COc1ccc(Nc2cc(C)c(O)c(C)c2C)cc1 [Compound 91, 2,3,6-trimethyl-4-(4-methoxyphenylamino)phenol] |
| 42 | 90 | Cc1cc(Nc2ccc(C(=O)O)cc2)c(C)c(C)c1O [Compound 102] |
| 78 | 94 | Cc1cc(Nc2ccccc2)c2c(c1O)CCCC2 [Compound 80, 2-methyl-4-phenylamino-5,6,7,8-tetrahydronaphthol] |
| 55 | 90 | Cc1cc(Nc2ccc(CC(=O)O)cc2)c2c(c1O)CCCC2 [Compound 104] |
| 91 | 95 | Cc1ccc(Nc2cc(C)c(O)c(C)c2C)cc1 [Compound 81, 2,3,6-trimethyl-4-(4-methylphenylamino)phenol] |
